In ChEMBL document CHEMBL1201862, “PubChem BioAssay data set” (2004):
Values joined by “and” are separate entries in the source; they are usually repeats but may differ in a detail not shown here. Equal values may be shown once. Active and inactive are the calls of the source.

Key:
[1] = Counterscreen for IDE inhibitors: Luminescence-based cell-based high throughput dose response assay to identify compounds that are cytotoxic to HEK cells. [Related pubchem assays: 434962 (Primary screen (IDE inhibitors in singlicate)), 449730 (Counterscreen (Cytotoxicity in triplicate)), 435028 (Confirmation (IDE inhibitors in triplicate)) …; format: functional; conditions: HEK293
[2] = biological target: T1, Insulin-degrading enzyme (Homo sapiens, UniProt P14735); experiment: Dose Response: Fluorescence polarization-based cell-based high throughput dose response assay for inhibitors of insulin-degrading enzyme (IDE). [Related pubchem assays: 434962 (Primary screen (IDE inhibitors in singlicate)), 449730 (Counterscreen (Cytotoxicity in triplicate)), 435028 (Confirmation (IDE inhibitors in triplicate)), 434984 (Summary …; format: functional
T1 sequence (P14735 whole entry): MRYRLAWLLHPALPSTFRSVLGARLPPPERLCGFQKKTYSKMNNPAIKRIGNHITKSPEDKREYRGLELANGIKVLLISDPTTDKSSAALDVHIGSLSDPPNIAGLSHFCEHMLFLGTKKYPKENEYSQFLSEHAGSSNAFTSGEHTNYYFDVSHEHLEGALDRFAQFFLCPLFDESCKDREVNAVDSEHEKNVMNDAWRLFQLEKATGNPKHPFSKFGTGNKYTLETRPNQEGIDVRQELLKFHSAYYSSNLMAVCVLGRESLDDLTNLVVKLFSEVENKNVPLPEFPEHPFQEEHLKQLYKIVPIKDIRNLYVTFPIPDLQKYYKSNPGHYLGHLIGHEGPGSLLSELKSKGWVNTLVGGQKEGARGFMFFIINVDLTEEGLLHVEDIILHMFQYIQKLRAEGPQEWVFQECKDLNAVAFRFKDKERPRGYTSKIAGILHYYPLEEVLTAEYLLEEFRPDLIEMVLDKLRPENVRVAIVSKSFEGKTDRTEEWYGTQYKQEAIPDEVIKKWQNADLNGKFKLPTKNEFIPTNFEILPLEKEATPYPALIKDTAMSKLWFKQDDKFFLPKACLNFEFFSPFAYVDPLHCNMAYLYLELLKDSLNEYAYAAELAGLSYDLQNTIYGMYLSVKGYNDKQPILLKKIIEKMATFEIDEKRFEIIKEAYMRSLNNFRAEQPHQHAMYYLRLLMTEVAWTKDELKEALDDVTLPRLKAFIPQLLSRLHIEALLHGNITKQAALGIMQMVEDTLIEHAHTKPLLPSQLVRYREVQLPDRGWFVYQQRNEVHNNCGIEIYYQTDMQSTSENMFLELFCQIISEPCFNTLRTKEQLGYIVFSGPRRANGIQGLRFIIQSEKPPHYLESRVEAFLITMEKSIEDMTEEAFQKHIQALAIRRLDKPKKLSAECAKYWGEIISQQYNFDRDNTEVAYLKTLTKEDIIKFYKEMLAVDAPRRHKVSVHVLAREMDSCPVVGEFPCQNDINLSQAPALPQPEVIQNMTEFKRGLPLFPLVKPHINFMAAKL

[3] = biological target: T2, Leucine aminopeptidase (Plasmodium falciparum 3D7, UniProt Q8IL11); experiment: P. falciparum M17LAP inhibitors, primary screen, biochemical, fluorogenic H-Leu-NHMec substrate, 1536-well (AID 1619); format: functional
T2 sequence (Q8IL11 whole entry): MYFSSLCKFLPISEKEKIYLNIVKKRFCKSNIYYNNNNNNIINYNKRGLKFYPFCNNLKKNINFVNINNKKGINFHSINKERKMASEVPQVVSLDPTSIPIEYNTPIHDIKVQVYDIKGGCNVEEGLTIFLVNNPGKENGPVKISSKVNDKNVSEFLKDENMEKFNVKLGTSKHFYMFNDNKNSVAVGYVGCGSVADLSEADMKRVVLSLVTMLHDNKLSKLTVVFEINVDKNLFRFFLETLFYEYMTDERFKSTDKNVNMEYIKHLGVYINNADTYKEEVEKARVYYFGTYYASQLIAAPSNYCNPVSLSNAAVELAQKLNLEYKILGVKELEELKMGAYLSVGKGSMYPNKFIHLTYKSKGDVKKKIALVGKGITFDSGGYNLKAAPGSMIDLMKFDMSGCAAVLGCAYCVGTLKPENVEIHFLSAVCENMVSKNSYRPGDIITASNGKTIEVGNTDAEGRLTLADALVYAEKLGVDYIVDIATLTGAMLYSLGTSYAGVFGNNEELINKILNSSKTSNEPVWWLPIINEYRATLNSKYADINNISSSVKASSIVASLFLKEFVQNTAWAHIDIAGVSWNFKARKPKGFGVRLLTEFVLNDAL

[4] = CCR5-tropic HIV-1 fusion blockers – cell-based, CCR5-tropic Env, dose response (AID 2279); format: functional
[5] = biological target: T3, Protein RecA (Mycobacterium tuberculosis, UniProt P9WHJ3); experiment: Fluorescence Cell-Free Homogeneous Dose Retest to Identify Inhibitors of RecA-Intein Splicing Activity. [Related pubchem assays (depositor defined):AID2097, AID2223, AID489010, AID492950]; format: functional
T3 sequence (P9WHJ3 whole entry): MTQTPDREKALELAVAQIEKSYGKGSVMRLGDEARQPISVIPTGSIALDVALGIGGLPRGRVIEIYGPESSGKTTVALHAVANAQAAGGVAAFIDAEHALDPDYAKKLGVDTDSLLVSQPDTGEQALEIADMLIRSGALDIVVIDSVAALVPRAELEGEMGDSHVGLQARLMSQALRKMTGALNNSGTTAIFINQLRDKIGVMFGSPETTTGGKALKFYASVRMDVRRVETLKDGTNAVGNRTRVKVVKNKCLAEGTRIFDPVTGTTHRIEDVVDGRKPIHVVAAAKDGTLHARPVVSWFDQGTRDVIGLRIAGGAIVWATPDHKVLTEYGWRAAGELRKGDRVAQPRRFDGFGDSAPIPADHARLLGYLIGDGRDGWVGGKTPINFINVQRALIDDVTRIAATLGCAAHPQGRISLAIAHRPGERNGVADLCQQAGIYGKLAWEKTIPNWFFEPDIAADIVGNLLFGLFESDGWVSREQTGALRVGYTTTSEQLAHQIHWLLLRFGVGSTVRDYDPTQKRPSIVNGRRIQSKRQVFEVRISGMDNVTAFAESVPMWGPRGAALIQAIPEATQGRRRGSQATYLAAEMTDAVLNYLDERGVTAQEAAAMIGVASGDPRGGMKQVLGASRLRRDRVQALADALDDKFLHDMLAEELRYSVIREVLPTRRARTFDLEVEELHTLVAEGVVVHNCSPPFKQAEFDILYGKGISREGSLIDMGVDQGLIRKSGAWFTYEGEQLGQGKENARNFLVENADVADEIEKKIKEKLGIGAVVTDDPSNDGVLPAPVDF

[6] = microbe, parasite or virus in culture; format: functional; conditions: Mycobacterium tuberculosis
[7] = biological target: T4, Voltage-gated N-type calcium channel alpha-1B subunit/Amyloid beta A4 precursor protein-binding family A member 1 (Homo sapiens, UniProt Q00975+Q02410); format: protein assay
[8] = biological target: G-protein coupled receptor 55 (Homo sapiens, UniProt Q9Y2T6); experiment: inhibition of LPI-stimulated GPR55 beta-arrestin translocation – imaging, U2OS, beta-arrestin-GFP, LPI agonist, primary screen (AID 2013); format: functional;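 further: antagonist potency measured as reduced agonist-driven arrestin aggregation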
[9] = biological target: Induced myeloid leukemia cell differentiation protein Mcl-1 (Homo sapiens, UniProt Q07820); format: functional
[10] = biological target: Eukaryotic translation initiation factor 4E (Mus musculus, UniProt P63073); experiment: blockers of eIF4G binding by eIF4E – biochemical, TR-FRET, dose response (AID 855); format: functional;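 further: potency for disrupting eIF4E binding to eIF4GI seen as loss of FRET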
[11] = biological target: Beta-galactosidase (Escherichia coli, UniProt Q8VNN2); experiment: detection-enzyme interference by beta-gal modulators – biochemical, E. coli enzyme, set 3, artefact control for CCR6 antagonist project, dose response (AID 504712); format: functional
[12] = biological target: T5, Replicative DNA helicase DnaB (Mycobacterium tuberculosis, UniProt P9WMR3); experiment: DnaB intein splicing inhibitors, dose response, biochemical, cell-free fluorescence (AID 449749); format: functional
T5 sequence (P9WMR3 whole entry): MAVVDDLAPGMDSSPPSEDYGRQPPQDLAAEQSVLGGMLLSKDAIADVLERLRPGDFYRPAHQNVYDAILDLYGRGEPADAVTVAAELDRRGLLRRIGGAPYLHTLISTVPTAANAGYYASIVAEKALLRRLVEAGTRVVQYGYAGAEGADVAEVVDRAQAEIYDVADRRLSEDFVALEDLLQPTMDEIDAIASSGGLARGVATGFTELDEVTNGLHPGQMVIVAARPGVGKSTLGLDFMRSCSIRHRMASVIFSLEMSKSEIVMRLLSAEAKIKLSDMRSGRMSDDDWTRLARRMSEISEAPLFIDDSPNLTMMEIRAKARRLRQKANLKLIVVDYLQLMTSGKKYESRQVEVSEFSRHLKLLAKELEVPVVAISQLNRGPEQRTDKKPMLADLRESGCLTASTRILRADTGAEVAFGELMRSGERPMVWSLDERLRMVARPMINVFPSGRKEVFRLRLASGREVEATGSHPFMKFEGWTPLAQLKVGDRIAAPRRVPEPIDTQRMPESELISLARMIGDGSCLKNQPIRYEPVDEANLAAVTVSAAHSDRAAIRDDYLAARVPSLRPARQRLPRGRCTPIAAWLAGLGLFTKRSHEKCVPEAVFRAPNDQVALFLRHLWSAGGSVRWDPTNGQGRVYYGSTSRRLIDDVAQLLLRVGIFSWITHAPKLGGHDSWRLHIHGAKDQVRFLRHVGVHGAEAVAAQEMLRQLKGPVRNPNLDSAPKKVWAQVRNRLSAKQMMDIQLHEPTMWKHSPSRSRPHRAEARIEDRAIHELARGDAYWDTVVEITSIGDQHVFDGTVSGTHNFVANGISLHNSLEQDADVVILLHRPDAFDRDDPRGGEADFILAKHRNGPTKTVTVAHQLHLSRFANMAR

[13] = biological target: T4, Voltage-gated N-type calcium channel alpha-1B subunit/Amyloid beta A4 precursor protein-binding family A member 1; format: protein assay; remark: listed apart in the source
[14] = biological target: Nonstructural protein 1 (Influenza A virus, UniProt Q194T2); format: functional, Influenza A virus (A/California/07/2009(H1N1))
[15] = biological target: Cytochrome P450 2D6 (Homo sapiens, UniProt P10635); experiment: qHTS Assay for Inhibitors and Substrates of Cytochrome P450 2D6. [Related pubchem assays: 410 ]; format: ADME; conditions: read-out: Potency
[16] = A Cell Based Secondary Assay To Explore Cytotoxicity of Compounds that Sensitize Mycobacterium Tuberculosis to Beta-Lactam Antibiotics.; format: functional
[17] = biological target: Serine/threonine-protein phosphatase PP1-alpha catalytic subunit (Homo sapiens, UniProt P62136); experiment: inhibition of protein phosphatase 1 activity – biochemical, fluorescence, dose response (AID 2403);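 further: phosphatase turnover of OMFP into fluorescent 3-O-methylfluorescein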
[18] = system: INS1; experiment: INS-1E survival protection against cytokine death – cell-based, luminescence, retest, dose response (AID 449756); format: functional; conditions: Rattus norvegicus;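 further: cell death triggered by IL-1 beta plus TNF-alpha plus IFN-gamma mixture; protective hits raise ATP signal compared with cytokine alone wells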
[19] = biological target: T6, Serine/threonine-protein phosphatase (Homo sapiens, UniProt Q9BPW0); experiment: Counterscreen for inhibitors of PP1: fluorescence-based biochemical high throughput dose response assay to identify inhibitors of Protein Phosphatase 5 (PP5). [Related pubchem assays: 2034 (Summary (PP5 inhibitors)), 1987 (PP5 inhibitors in singlate), 2235 (PP1 inhibitors in singlate)]
T6 sequence (Q9BPW0 whole entry): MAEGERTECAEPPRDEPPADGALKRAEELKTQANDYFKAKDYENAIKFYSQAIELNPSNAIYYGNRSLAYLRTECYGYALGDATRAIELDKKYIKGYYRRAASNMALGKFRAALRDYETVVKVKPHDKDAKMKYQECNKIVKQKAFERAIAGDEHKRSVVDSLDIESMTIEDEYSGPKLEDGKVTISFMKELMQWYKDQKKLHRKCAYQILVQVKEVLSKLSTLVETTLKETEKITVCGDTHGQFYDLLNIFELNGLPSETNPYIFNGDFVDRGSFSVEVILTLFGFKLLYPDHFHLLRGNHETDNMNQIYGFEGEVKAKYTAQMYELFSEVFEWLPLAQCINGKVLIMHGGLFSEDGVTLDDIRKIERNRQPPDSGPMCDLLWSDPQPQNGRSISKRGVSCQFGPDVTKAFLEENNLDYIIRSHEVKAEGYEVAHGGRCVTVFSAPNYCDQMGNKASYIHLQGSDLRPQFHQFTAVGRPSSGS

[20] = biological target: Procathepsin L (Homo sapiens, UniProt P07711)
[21] = biological target: Aspartyl aminopeptidase (Plasmodium falciparum 3D7, UniProt Q8I2J3)
[22] = biological target: Aminopeptidase N (Plasmodium falciparum FcB1/Columbia, UniProt O96935); experiment: malaria alanyl aminopeptidase activity blockers – biochemical, fluorogenic H-Leu-NHMec substrate, 1536-well (AID 1445); design: species or system Plasmodium falciparum 3D7, 3D7

Sequence of Eukaryotic translation initiation factor 4E (P63073 whole entry): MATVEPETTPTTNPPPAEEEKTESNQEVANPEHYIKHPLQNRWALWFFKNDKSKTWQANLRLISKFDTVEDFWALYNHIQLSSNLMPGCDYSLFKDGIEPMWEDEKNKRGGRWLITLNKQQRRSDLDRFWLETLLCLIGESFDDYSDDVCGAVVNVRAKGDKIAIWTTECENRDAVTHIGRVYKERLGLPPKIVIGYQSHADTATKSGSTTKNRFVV
T4 sequence (Q00975 whole entry): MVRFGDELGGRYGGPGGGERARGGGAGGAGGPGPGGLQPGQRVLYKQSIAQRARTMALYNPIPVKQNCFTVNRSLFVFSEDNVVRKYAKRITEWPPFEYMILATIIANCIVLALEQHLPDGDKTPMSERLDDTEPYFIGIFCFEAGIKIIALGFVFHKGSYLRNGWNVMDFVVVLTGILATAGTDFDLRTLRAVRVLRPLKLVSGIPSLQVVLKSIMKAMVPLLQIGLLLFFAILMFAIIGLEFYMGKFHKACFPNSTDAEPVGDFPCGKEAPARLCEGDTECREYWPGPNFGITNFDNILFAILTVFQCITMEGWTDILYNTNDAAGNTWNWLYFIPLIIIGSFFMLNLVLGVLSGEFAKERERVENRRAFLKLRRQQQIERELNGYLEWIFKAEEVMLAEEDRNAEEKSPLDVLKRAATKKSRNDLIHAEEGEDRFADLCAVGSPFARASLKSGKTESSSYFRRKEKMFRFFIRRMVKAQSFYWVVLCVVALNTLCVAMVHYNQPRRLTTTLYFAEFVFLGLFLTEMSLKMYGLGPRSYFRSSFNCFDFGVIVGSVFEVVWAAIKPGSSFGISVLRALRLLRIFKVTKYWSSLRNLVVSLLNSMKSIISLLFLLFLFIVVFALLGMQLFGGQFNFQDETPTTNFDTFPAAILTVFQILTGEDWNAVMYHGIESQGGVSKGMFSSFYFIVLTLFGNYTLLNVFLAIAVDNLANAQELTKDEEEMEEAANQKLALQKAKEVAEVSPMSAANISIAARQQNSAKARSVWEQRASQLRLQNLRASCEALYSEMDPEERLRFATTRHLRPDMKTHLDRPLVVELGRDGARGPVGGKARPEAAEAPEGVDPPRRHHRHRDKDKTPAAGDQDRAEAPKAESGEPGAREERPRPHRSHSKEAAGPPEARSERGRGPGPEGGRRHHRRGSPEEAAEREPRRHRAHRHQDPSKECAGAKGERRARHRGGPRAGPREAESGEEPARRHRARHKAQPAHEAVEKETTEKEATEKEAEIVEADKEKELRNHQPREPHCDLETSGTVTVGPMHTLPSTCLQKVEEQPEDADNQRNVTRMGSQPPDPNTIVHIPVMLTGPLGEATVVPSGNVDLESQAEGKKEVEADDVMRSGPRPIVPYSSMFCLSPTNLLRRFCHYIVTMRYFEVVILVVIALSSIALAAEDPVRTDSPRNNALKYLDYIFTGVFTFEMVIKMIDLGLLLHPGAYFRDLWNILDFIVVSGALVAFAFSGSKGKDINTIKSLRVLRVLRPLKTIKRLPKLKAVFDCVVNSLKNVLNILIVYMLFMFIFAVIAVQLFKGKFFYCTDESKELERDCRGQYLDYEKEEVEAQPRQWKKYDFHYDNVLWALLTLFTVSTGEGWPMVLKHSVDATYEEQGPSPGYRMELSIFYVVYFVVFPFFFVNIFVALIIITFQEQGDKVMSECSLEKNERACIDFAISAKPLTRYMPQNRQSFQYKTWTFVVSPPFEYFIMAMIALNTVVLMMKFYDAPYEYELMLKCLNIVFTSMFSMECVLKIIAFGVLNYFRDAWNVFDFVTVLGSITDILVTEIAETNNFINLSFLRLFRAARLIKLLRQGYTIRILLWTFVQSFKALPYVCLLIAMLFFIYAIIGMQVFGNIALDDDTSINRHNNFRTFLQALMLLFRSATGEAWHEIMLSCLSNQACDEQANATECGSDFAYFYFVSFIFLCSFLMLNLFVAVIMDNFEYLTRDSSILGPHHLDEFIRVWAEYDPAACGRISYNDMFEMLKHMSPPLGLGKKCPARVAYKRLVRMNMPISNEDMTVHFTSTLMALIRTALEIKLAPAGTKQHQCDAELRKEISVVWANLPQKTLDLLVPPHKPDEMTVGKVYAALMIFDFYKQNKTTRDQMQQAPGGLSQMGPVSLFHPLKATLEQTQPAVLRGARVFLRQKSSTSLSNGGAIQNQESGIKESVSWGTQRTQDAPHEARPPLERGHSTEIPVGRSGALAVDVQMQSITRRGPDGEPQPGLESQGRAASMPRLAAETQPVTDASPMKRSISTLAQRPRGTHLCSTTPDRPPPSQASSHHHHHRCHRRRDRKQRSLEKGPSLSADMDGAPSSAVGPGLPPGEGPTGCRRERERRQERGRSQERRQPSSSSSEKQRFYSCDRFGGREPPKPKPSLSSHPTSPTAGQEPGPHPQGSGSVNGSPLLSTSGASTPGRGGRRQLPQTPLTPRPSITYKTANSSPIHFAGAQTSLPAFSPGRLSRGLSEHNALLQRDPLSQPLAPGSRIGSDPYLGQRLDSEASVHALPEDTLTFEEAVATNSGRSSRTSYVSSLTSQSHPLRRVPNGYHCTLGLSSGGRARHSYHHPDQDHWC
T4 sequence (Q02410 whole entry): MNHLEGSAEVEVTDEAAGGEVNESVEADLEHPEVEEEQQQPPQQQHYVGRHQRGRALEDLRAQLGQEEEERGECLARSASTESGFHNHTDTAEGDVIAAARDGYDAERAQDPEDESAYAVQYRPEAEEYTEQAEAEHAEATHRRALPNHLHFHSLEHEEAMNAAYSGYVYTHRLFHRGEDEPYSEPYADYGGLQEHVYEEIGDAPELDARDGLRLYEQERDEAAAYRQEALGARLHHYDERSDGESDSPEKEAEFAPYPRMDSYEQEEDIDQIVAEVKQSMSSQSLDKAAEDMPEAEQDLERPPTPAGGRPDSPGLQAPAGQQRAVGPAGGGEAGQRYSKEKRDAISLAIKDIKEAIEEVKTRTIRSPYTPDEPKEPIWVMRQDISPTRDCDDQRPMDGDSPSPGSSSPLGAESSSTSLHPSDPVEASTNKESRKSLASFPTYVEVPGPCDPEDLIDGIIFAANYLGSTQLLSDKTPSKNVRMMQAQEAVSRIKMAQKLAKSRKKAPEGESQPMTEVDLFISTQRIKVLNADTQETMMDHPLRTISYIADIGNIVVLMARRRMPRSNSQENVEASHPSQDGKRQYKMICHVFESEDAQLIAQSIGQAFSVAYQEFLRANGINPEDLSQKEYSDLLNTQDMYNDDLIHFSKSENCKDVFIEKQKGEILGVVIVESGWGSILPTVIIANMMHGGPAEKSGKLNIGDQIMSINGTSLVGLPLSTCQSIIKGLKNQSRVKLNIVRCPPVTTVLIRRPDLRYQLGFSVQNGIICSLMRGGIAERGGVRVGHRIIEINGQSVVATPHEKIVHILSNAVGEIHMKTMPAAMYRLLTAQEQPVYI
Sequence of Beta-galactosidase (Q8VNN2 whole entry): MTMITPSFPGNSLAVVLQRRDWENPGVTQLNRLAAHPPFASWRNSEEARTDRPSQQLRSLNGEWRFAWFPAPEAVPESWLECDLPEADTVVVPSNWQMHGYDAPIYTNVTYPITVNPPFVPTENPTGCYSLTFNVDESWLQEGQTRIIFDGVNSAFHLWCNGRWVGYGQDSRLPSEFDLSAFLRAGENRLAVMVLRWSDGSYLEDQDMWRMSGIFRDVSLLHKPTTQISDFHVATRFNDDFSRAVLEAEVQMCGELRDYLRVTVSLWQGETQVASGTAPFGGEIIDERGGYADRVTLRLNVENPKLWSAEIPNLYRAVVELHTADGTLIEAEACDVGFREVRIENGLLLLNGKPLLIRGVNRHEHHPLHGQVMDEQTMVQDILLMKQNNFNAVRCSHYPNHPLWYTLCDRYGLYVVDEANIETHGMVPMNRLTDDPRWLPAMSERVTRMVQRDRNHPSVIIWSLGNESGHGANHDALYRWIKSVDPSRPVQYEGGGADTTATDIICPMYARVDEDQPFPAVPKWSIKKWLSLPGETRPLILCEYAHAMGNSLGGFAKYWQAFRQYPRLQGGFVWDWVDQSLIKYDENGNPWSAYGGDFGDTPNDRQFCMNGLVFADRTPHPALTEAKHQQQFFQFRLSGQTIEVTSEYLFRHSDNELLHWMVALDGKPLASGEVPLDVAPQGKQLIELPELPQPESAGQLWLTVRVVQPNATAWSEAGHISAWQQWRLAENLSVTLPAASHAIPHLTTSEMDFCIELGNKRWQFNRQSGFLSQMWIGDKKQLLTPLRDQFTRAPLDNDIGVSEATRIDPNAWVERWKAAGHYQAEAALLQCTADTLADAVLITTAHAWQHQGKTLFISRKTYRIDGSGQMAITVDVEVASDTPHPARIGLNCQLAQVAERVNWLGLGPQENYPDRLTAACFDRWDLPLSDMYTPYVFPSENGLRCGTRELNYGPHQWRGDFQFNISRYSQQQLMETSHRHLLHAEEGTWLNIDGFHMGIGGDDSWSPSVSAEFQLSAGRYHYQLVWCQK
Sequence of Serine/threonine-protein phosphatase PP1-alpha catalytic subunit (P62136 whole entry): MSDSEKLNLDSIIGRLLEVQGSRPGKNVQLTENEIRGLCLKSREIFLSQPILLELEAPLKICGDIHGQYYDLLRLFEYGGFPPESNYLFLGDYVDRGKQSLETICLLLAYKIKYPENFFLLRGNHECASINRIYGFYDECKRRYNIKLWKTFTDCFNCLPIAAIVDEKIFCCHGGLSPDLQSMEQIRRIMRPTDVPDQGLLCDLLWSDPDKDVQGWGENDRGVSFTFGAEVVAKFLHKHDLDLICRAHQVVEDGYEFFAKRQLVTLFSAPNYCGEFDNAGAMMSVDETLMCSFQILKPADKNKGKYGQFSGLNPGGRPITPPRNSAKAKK
Sequence of Procathepsin L (P07711 whole entry): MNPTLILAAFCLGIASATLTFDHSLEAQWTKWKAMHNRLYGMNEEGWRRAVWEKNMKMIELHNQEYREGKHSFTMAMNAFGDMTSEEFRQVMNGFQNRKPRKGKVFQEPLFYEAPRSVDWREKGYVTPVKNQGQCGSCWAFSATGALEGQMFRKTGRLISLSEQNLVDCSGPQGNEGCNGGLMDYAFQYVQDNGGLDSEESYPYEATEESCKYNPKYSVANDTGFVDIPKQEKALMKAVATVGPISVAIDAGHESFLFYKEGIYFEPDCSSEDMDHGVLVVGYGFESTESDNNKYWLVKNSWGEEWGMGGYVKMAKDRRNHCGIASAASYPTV

Cc1c(OC(C)C(=O)NCc2ccncc2)ccc2c3c(c(=O)oc12)CCCC3 (centres undefined)
IC50 [1]: 15.5 µM (not active)
IC50 [2]: > 55.9 µM (not active)

O=C(O)c1ccc(N2C(=O)/C(=C/c3ccc(-c4ccc([N+](=O)[O-])cc4)o3)C=C2c2ccccc2)cc1
IC50 [3]: 21.4 µM (active)
IC50 [4]: > 50 µM (active)
EC50 [5]: > 380 µM (inactive)
CC50 [6]: 15.8 µM (active)
IC50 [7]: > 50 µM (inactive)
IC50 [8]: < 0.5 µM (active)
IC50 [9]: 0.417 µM (active)
IC50 [10]: 9.86 µM (active) and 3.93 µM (active)
IC50 [11]: 33.8 µM (active)
AC50 [12]: 56.7 µM (active)
IC50 [13]: 5.56 µM (active)
IC50 [14]: 6.04 µM (active)

CC(=O)OCC1OC(C#Cc2ccc(F)cc2F)C=CC1OC(C)=O (centres undefined)
AC50 [15]: 6.31 µM (inconclusive)

CN(c1ccc(C(=O)Nc2ccccc2Sc2ccccc2)cc1)S(C)(=O)=O
CC50 [16]: > 40 µM (active)

CCOC(=O)N1CCN(c2ccnc3cc(Cl)ccc23)CC1
IC50 [1]: 15.7 µM (not active)
IC50 [2]: 18.9 µM (not active)

COc1cnc(-c2ccccn2)nc1Sc1ccc(C)cc1
IC50 [17]: 6.95 µM (active)
AC50 [18]: 5.03 µM (active)
IC50 [19]: > 67 µM (not active)

CC1=C([N+](=O)[O-])C(c2ccc(O)c(O)c2)NC(=O)N1 (centres undefined)
IC50 [20]: > 59.6 µM (not active)
IC50 [21]: 0.864 µM (active)

C[C@H](CCC(=O)O)[C@H]1CC[C@H]2[C@@H]3[C@@H](O)C[C@@H]4C[C@H](O)CC[C@]4(C)[C@H]3CC[C@]12C [URSODIOL]
IC50 [22]: 2.6 µM (active)
